{"source": "patent US10189816B2", "about": "“Substituted pyridines as inhibitors of human immunodeficiency virus replication” (priority 2015, dated 2019)", "tested_on": "NL-RLuc virus", "assay": "Inhibition of HIV replication (NL-RLuc reporter virus in MT-2 cells, luciferase readout)", "format": "cell-based", "conditions": "Human immunodeficiency virus 1, MT2, 120 h", "text": "Inhibition of HIV replication: A recombinant NL-RLuc proviral clone was constructed in which a section of the nef gene from NL4-3 was replaced with the Renilla Luciferase gene. This virus is fully infectious and can undergo multiple cycles of replication in cell culture. In addition, the luciferous reporter provides a simple and easy method for quantitating the extent of virus growth and consequently, the antiviral activity of test compounds. The plasmid pNLRLuc contains the proviral NL-Rluc DNA cloned into pUC18 at the PvuII site. The NL-RLuc virus was prepared by transfection of 293T cells with the plasmid pNLRLuc. Transfections were performed using the LipofectAMINE PLUS kit from Invitrogen (Carlsbad, Calif.) according to the manufacturer and the virus generated was titered in MT-2 cells. For susceptibility analyses, the titrated virus was used to infect MT-2 cells in the presence of compound, and after 5 days of incubation, cells were processed and quantitated for virus growth by the amount of expressed luciferase. Assay media was RPMI 1640 supplemented with 10% heat inactivated fetal bovine serum (FBS), 100 units/ml penicillin G/100 units/ml streptomycin, 10 mM HEPES buffer pH 7.55 and 2 mM L-glutamine. The results from at least 2 experiments were used to calculate the EC50 values. Luciferase was quantitated using the Dual Luciferase kit from Promega (Madison, Wis.). Susceptibility of viruses to compounds was determined by incubation in the presence of serial dilutions of the compound. The 50% effective concentration (EC50) was calculated by using the exponential form of the median effect equation where (Fa)=1/[1+(ED50/drug conc.)^m] (Johnson V A, Byington R T. Infectivity Assay. In Techniques in HIV Research. ed. Aldovini A, Walker B D. 71-76. New York: Stockton Press.1990). Activity equal to A refers to a compound having an EC50≤100 nM, while B and C denote compounds having an EC50 between 100 nM and 1 uM (B) or >1 uM (C).", "note": "Like-named read-outs stand apart in the source and are kept apart here.", "data": [{"smiles": "Cc1nc(C)c([C@H](OC(C)(C)C)C(=O)O)c(N2CCC(C)(C)CC2)c1-c1ccc2c(c1)CCN(Cc1ccccc1OCC(C)C)C2", "note": "[Compound 153, (S)-2-(tert-butoxy)-2-(4-(4,4-dimethylpiperidin-1-yl)-5-(2-(2-isobutoxybenzyl)-1,2,3,4-tetrahydroisoquinolin-6-yl)-2,6-dimethylpyridin-3-yl)acetic acid]", "values": [{"measurement": "EC50", "setting": "read-out: Activity", "result": "< 0.1", "unit": "µM"}]}, {"smiles": "Cc1nc(C)c([C@H](OC(C)(C)C)C(=O)O)c(N2CCC(C)(C)CC2)c1-c1ccc2c(c1)CCN(Cc1ccc(F)cc1Cl)C2", "note": "[Compound 35, (S)-2-(tert-butoxy)-2-(5-(2-(2-chloro-4-fluorobenzyl)-1,2,3,4-tetrahydroisoquinolin-6-yl)-4-(4,4-dimethylpiperidin-1-yl)-2,6-dimethylpyridin-3-yl)acetic acid]", "values": [{"measurement": "EC50", "setting": "read-out: Activity", "result": "< 0.1", "unit": "µM"}]}, {"smiles": "Cc1ccc(CN2CCc3cc(-c4c(C)nc(C)c([C@H](OC(C)(C)C)C(=O)O)c4N4CCC(C)(C)CC4)ccc3C2)cc1Cl", "note": "[Compound 132, (S)-2-(tert-butoxy)-2-(5-(2-(3-chloro-4-methylbenzyl)-1,2,3,4-tetrahydroisoquinolin-6-yl)-4-(4,4-dimethylpiperidin-1-yl)-2,6-dimethylpyridin-3-yl)acetic acid]", "values": [{"measurement": "EC50", "setting": "read-out: Activity", "result": "< 0.1", "unit": "µM"}]}, {"smiles": "Cc1nc(C)c([C@H](OC(C)(C)C)C(=O)O)c(N2CCC(C)(C)CC2)c1-c1ccc2c(c1)CCN(Cc1cc(F)ccc1F)C2", "note": "[Compound 38, (S)-2-(tert-butoxy)-2-(5-(2-(2,5-difluorobenzyl)-1,2,3,4-tetrahydroisoquinolin-6-yl)-4-(4,4-dimethylpiperidin-1-yl)-2,6-dimethylpyridin-3-yl)acetic acid]", "values": [{"measurement": "EC50", "setting": "read-out: Activity", "result": "< 0.1", "unit": "µM"}, {"measurement": "EC50", "setting": "read-out: EC50 μM", "result": 0.006, "unit": "µM"}]}, {"smiles": "COc1cc(CN2CCc3cc(-c4c(C)nc(C)c([C@H](OC(C)(C)C)C(=O)O)c4N4CCC(C)(C)CC4)ccc3C2)c(F)cc1F", "note": "[Compound 94, (S)-2-(tert-butoxy)-2-(5-(2-(2,4-difluoro-5-methoxybenzyl)-1,2,3,4-tetrahydroisoquinolin-6-yl)-4-(4,4-dimethylpiperidin-1-yl)-2,6-dimethylpyridin-3-yl)acetic acid]", "values": [{"measurement": "EC50", "setting": "read-out: Activity", "result": "< 0.1", "unit": "µM"}]}, {"smiles": "Cc1ccc(CN2CCc3cc(-c4c(C)nc(C)c([C@H](OC(C)(C)C)C(=O)O)c4N4CCC(C)(C)CC4)ccc3C2)c(F)c1F", "note": "[Compound 73, (S)-2-(tert-butoxy)-2-(5-(2-(2,3-difluoro-4-methylbenzyl)-1,2,3,4-tetrahydroisoquinolin-6-yl)-4-(4,4-dimethylpiperidin-1-yl)-2,6-dimethylpyridin-3-yl)acetic acid]", "values": [{"measurement": "EC50", "setting": "read-out: Activity", "result": "< 0.1", "unit": "µM"}, {"measurement": "EC50", "setting": "read-out: EC50 μM", "result": 0.007, "unit": "µM"}]}, {"smiles": "Cc1nc(C)c([C@H](OC(C)(C)C)C(=O)O)c(N2CCC(C)(C)CC2)c1-c1ccc2c(c1)CCN(C(C)c1ccccc1)C2", "note": "(stereo partly drawn) [Compound 13, (2S)-2-(tert-butoxy)-2-(4-(4,4-dimethylpiperidin-1-yl)-2,6-dimethyl-5-(2-(1-phenylethyl)-1,2,3,4-tetrahydroisoquinolin-6-yl)pyridin-3-yl)acetic acid]", "values": [{"measurement": "EC50", "setting": "read-out: Activity", "result": "< 0.1", "unit": "µM"}]}, {"smiles": "Cc1cccc(Cl)c1CN1CCc2cc(-c3cnc(C)c([C@H](OC(C)(C)C)C(=O)O)c3N3CCC(C)(C)CC3)ccc2C1", "note": "[Compound 164, (S)-2-(tert-Butoxy)-2-(5-(2-(2-chloro-6-methylbenzyl)-1,2,3,4-tetrahydroisoquinolin-6-yl)-4-(4,4-dimethylpiperidin-1-yl)-2-methylpyridin-3-yl)acetic acid]", "values": [{"measurement": "EC50", "setting": "read-out: Activity", "result": "< 0.1", "unit": "µM"}, {"measurement": "EC50", "setting": "read-out: EC50 μM", "result": 0.003, "unit": "µM"}]}, {"smiles": "Cc1nc(C)c([C@H](OC(C)(C)C)C(=O)O)c(N2CCC(C)(C)CC2)c1-c1ccc2c(c1)CCN(Cc1ccccc1Cl)C2", "note": "[Compound 55, (S)-2-(tert-butoxy)-2-(5-(2-(2-chlorobenzyl)-1,2,3,4-tetrahydroisoquinolin-6-yl)-4-(4,4-dimethylpiperidin-1-yl)-2,6-dimethylpyridin-3-yl)acetic acid]", "values": [{"measurement": "EC50", "setting": "read-out: Activity", "result": "< 0.1", "unit": "µM"}]}, {"smiles": "Cc1cccc(F)c1CN1CCc2cc(-c3c(C)nc(C)c([C@H](OC(C)(C)C)C(=O)O)c3N3CCC(C)(C)CC3)ccc2C1", "note": "[Compound 51, (S)-2-(tert-butoxy)-2-(4-(4,4-dimethylpiperidin-1-yl)-5-(2-(2-fluoro-6-methylbenzyl)-1,2,3,4-tetrahydroisoquinolin-6-yl)-2,6-dimethylpyridin-3-yl)acetic acid]", "values": [{"measurement": "EC50", "setting": "read-out: Activity", "result": "< 0.1", "unit": "µM"}, {"measurement": "EC50", "setting": "read-out: EC50 μM", "result": 0.003, "unit": "µM"}]}, {"smiles": "Cc1nc(C)c([C@H](OC(C)(C)C)C(=O)O)c(N2CCC(C)(C)CC2)c1-c1ccc2c(c1)CCN(Cc1cc(F)cc(OC(F)(F)F)c1)C2", "note": "[Compound 111, (S)-2-(tert-butoxy)-2-(4-(4,4-dimethylpiperidin-1-yl)-5-(2-(3-fluoro-5-(trifluoromethoxy)benzyl)-1,2,3,4-tetrahydroisoquinolin-6-yl)-2,6-dimethylpyridin-3-yl)acetic acid]", "values": [{"measurement": "EC50", "setting": "read-out: Activity", "result": "< 0.1", "unit": "µM"}]}, {"smiles": "Cc1nc(C)c([C@H](OC(C)(C)C)C(=O)O)c(N2CCC(C)(C)CC2)c1-c1ccc2c(c1)CCN(Cc1ccc(F)cc1C(F)(F)F)C2", "note": "[Compound 69, (S)-2-(tert-butoxy)-2-(4-(4,4-dimethylpiperidin-1-yl)-5-(2-(4-fluoro-2-(trifluoromethyl)benzyl)-1,2,3,4-tetrahydroisoquinolin-6-yl)-2,6-dimethylpyridin-3-yl)acetic acid]", "values": [{"measurement": "EC50", "setting": "read-out: Activity", "result": "< 0.1", "unit": "µM"}]}, {"smiles": "COc1ccc(C(F)(F)F)cc1CN1CCc2cc(-c3c(C)nc(C)c([C@H](OC(C)(C)C)C(=O)O)c3N3CCC(C)(C)CC3)ccc2C1", "note": "[Compound 151, (S)-2-(tert-butoxy)-2-(4-(4,4-dimethylpiperidin-1-yl)-5-(2-(2-methoxy-5-(trifluoromethyl)benzyl)-1,2,3,4-tetrahydroisoquinolin-6-yl)-2,6-dimethylpyridin-3-yl)acetic acid]", "values": [{"measurement": "EC50", "setting": "read-out: Activity", "result": "< 0.1", "unit": "µM"}]}, {"smiles": "Cc1cc(CN2CCc3cc(-c4c(C)nc(C)c([C@H](OC(C)(C)C)C(=O)O)c4N4CCC(C)(C)CC4)ccc3C2)ccc1Cl", "note": "[Compound 134, (S)-2-(tert-butoxy)-2-(5-(2-(4-chloro-3-methylbenzyl)-1,2,3,4-tetrahydroisoquinolin-6-yl)-4-(4,4-dimethylpiperidin-1-yl)-2,6-dimethylpyridin-3-yl)acetic acid]", "values": [{"measurement": "EC50", "setting": "read-out: Activity", "result": "< 0.1", "unit": "µM"}, {"measurement": "EC50", "setting": "read-out: EC50 μM", "result": 0.012, "unit": "µM"}]}, {"smiles": "COc1cc(CN2CCc3cc(-c4c(C)nc(C)c([C@H](OC(C)(C)C)C(=O)O)c4N4CCC(C)(C)CC4)ccc3C2)c(F)cc1Cl", "note": "[Compound 93, (S)-2-(tert-butoxy)-2-(5-(2-(4-chloro-2-fluoro-5-methoxybenzyl)-1,2,3,4-tetrahydroisoquinolin-6-yl)-4-(4,4-dimethylpiperidin-1-yl)-2,6-dimethylpyridin-3-yl)acetic acid]", "values": [{"measurement": "EC50", "setting": "read-out: Activity", "result": "< 0.1", "unit": "µM"}]}, {"smiles": "COc1c(F)cc(CN2CCc3cc(-c4c(C)nc(C)c([C@H](OC(C)(C)C)C(=O)O)c4N4CCC(C)(C)CC4)ccc3C2)cc1F", "note": "[Compound 95, (S)-2-(tert-butoxy)-2-(5-(2-(3,5-difluoro-4-methoxybenzyl)-1,2,3,4-tetrahydroisoquinolin-6-yl)-4-(4,4-dimethylpiperidin-1-yl)-2,6-dimethylpyridin-3-yl)acetic acid]", "values": [{"measurement": "EC50", "setting": "read-out: Activity", "result": "< 0.1", "unit": "µM"}]}, {"smiles": "CCOc1cc(Cl)cc(Cl)c1CN1CCc2cc(-c3c(C)nc(C)c([C@H](OC(C)(C)C)C(=O)O)c3N3CCC(C)(C)CC3)ccc2C1", "note": "[Compound 90, (S)-2-(tert-butoxy)-2-(5-(2-(2,4-dichloro-6-ethoxybenzyl)-1,2,3,4-tetrahydroisoquinolin-6-yl)-4-(4,4-dimethylpiperidin-1-yl)-2,6-dimethylpyridin-3-yl)acetic acid]", "values": [{"measurement": "EC50", "setting": "read-out: Activity", "result": "< 0.1", "unit": "µM"}]}, {"smiles": "Cc1nc(C)c([C@H](OC(C)(C)C)C(=O)O)c(N2CCC(C)(C)CC2)c1-c1ccc2c(c1)CCN(Cc1ccccc1OC(F)F)C2", "note": "[Compound 114, (S)-2-(tert-butoxy)-2-(5-(2-(2-(difluoromethoxy)benzyl)-1,2,3,4-tetrahydroisoquinolin-6-yl)-4-(4,4-dimethylpiperidin-1-yl)-2,6-dimethylpyridin-3-yl)acetic acid]", "values": [{"measurement": "EC50", "setting": "read-out: Activity", "result": "< 0.1", "unit": "µM"}]}, {"smiles": "Cc1ccc(CN2CCc3cc(-c4c(C)nc(C)c([C@H](OC(C)(C)C)C(=O)O)c4N4CCC(C)(C)CC4)ccc3C2)c(C)c1", "note": "[Compound 19, (S)-2-(tert-butoxy)-2-(5-(2-(2,4-dimethylbenzyl)-1,2,3,4-tetrahydroisoquinolin-6-yl)-4-(4,4-dimethylpiperidin-1-yl)-2,6-dimethylpyridin-3-yl)acetic acid]", "values": [{"measurement": "EC50", "setting": "read-out: Activity", "result": "< 0.1", "unit": "µM"}]}, {"smiles": "Cc1nc(C)c([C@H](OC(C)(C)C)C(=O)O)c(N2CCC(C)(C)CC2)c1-c1ccc2c(c1)CCN(Cc1ccc(F)c(C(F)(F)F)c1)C2", "note": "[Compound 67, (S)-2-(tert-butoxy)-2-(4-(4,4-dimethylpiperidin-1-yl)-5-(2-(4-fluoro-3-(trifluoromethyl)benzyl)-1,2,3,4-tetrahydroisoquinolin-6-yl)-2,6-dimethylpyridin-3-yl)acetic acid]", "values": [{"measurement": "EC50", "setting": "read-out: Activity", "result": "< 0.1", "unit": "µM"}]}, {"smiles": "Cc1nc(C)c([C@H](OC(C)(C)C)C(=O)O)c(N2CCC(C)(C)CC2)c1-c1ccc2c(c1)CCN(Cc1c(F)cccc1C(F)(F)F)C2", "note": "[Compound 30, (S)-2-(tert-butoxy)-2-(4-(4,4-dimethylpiperidin-1-yl)-5-(2-(2-fluoro-6-(trifluoromethyl)benzyl)-1,2,3,4-tetrahydroisoquinolin-6-yl)-2,6-dimethylpyridin-3-yl)acetic acid]", "values": [{"measurement": "EC50", "setting": "read-out: Activity", "result": "< 0.1", "unit": "µM"}]}]}
